What was measured:
[1] = tested on: ADP-induced platelet aggregation in human PRP; assay: In-vitro human platelet aggregation in PRP (ADP-induced); type: cell-based; details: for HUMAN PRP % INHIBITION AT 10^-4 M: compound at 10^-4 M, human platelet-rich plasma; for IC50: human PRP, linear regression of the dose response curve
Protocol: In one assay, platelet aggregation is examined in platelet-rich plasma which also is rich in fibrinogen and other plasma proteins. The % inhibition is determined for the test compound by comparing the extent of platelet aggregation in the presence and absence of the test compound.
Healthy male or female donors who have not taken any antiplatelet drugs for at least 2 weeks were fasted for 8 hours prior to drawing blood; then 30 ml whole blood was collected using a butterfly needle and 30 cc plastic syringe with 3 ml of 0.129 M buffered sodium citrate (3.8%). The syringe was rotated carefully as blood was drawn to mix the citrate. Platelet-richplasma (PRP) was prepared by centrifugation at 100×g for 10 minutes at room temperature, allowing the centrifuge to coast to a stop without braking. The PRP was removed from the blood with a plastic pipette and placed in a plastic capped, 50 ml Corning conical sterile centrifuge tube which was held at room temperature. Platelet poor plasma (PPP) was prepared by centrifuging the remaining blood at 2000×g for 15 minutes at room temperature allowing the centrifuge to coast to a stop without braking. The PRP was adjusted with PPP to a count of 2-3×10^8 platelets per ml. 400 μl of the PRP preparation and 50 μl of the compound to be tested or saline were preincubated for 1 minute at 37° C. in a Payton aggregometer (Payton Scientific, Inc., Buffalo, N.Y.). 50 μl of adenosine 5'-diphosphate (ADP) (50 μM) was added to the cuvettes and the aggregation was monitored for 1 minute. All compounds are tested in duplicate. Results are calculated as follows: Percent of control=[(maximal OD minus initial OD of compound) divided by (maximal OD minus initial OD of control saline)]×100. The % inhibition=100-(percent of control).
The compounds tested and their activity results in % inhibition at 10^-4 M and median inhibitory concentration (IC50) were as recorded in Table 1.

[2] = tested on: collagen induced rat thrombocytopenia (platelet aggregation); assay: In vivo rat thrombocytopenia (collagen induced)
Protocol: In another test, the effect of the peptide mimetic compound on collagen induced thrombocytopenia (platelet aggregation) is measured in vivo in the rat. Again, the % inhibition is determined for the test compound and compared against a saine or ethanol vehicle in the absence of the test compound.
Male rats [Charles River, CRL:CD(SD), 400-450 g] were used. The rats were anesthetized with Na pentabarbital (65 mg/kg, Vet Labs, Limited, lnc., Lenexa, Kan.). Two incisions were made to expose both jugular veins. Using an infusion pump (Harvard Apparatus, South Natick, Mass.) and a 5 cc syringe with a 19 g. butterfly, the test compound or vehicle was infused into the left jugular vein at a rate of 0.39 ml/min for 3 min. After 2 min of compound/vehicle infusion, collagen (60 μg/kg) (Helena Laboratories,Beaumont, Tex.) was injected with a one ml syringe into the right jugular vein. The body cavity was opened and the vena cava was exposed for blood sampling. One min after the collagen injection, compound infusion was stopped and blood was sampled from the vena cava (within 30 sec) with a 3 cc syringe containing […] of 4.5% EDTA/Tris (0.1 M) (pH 7.35) plus 150 μM indomethacin. Platelet rich plasma (PRP) was prepared by centrifuging the blood at 126×g for 10 min. Five μ1 of PRP was counted in 20 ml of Isoton®III in a Coulter Counter.
Percent inhibition of collagen induced aggregation was calculated by comparison of the platelet counts in animals that were treated with test compound and collagen (a) with platelet counts for animals receiving no collagen (non-aggregated control) and (b) with platelet counts for animals receiving vehicle and collagen (aggregated control).
The % inhibition of platelet aggregation in vivo and the median effective dose (ED50) of the test compounds are set forth in the following Table II.

Compound | HUMAN PRP % INHIBITION AT 10^-4 M [1] | % INHIBITION AT 1 mg/kg ([2]; 1 mg/kg, infusion into jugular vein, collagen 60 μg/kg, rat) | effective dose relative to that required for equivalent inhibitory activity by Arg-Gly-Asp-(O-methyl-Tyr)-NH2 ([2]; in vivo thrombocytopenia assay, fraction of reference dose) | ED50 ([2]; infusion into jugular vein, collagen induced thrombocytopenia, rat) | ED50 (orally active in rats) ([2]; oral, rats) | IC50 [1]
COc1ccc(CCNC(=O)[C@H](CC(=O)O)NC(=O)CCCCCCNC(=N)N)cc1 [7-guanidino-heptanoyl-Asp--2-(4-methoxy-phenyl)ethyl amide] | 43% | – | – | – | – | –
COc1ccc(CCNC(=O)C(CC(=O)O)NC(=O)CCCCCCCNC(=N)N)cc1 (centres unmarked) [8-guanidino-octanoyl-Asp-2-(4-methoxyphenyl)ethyl amide] | 100% | 67.05% | about one eighth | 0.07 mg/kg | 7.8 mg/kg | –
COc1ccc(CCNC(=O)[C@H](CC(=O)O)NC(=O)CCCCCCCNC(=N)N)cc1OC [8-guanidino-octanoyl-Asp--2-(3,4-dimethoxy-phenyl)ethyl amide] | 100% | – | – | – | – | 12 µM
COc1ccc(CNC(=O)[C@H](CC(=O)O)NC(=O)CCCCCCCNC(=N)N)cc1 [8-guanidino-octanoyl-Asp--4-methoxybenzyl amide] | 100% | – | – | – | – | 33 µM
N=C(N)NCCCCCCCC(=O)N[C@@H](CC(=O)O)C(=O)N[C@@H](Cc1ccc(-c2ccccc2)cc1)C(N)=O [8-guanidino-octanoyl-Asp--(4-phenyl)-phenylalanine amide] | 100% | – | – | – | – | 17 µM
COc1ccc(CCNC(=O)[C@H](CC(=O)O)NC(=O)CCCCCCCCNC(=N)N)cc1 [9-guanidino-nonanoyl-Asp-2-(4-methoxyphenyl)ethyl amide] | 100% | – | – | – | – | 27 µM
COc1ccc(CCNC(=O)[C@H](CC(=O)O)NC(=O)CCCCCCCCCNC(=N)N)cc1 [10-guanidino-decanoyl-Asp--2-(4-methoxy-phenyl)ethyl amide] | 65% | – | – | – | – | 70 µM
COc1ccc(CCNC(=O)[C@H](CC(=O)O)NC(=O)CNCCCCNC(=N)N)cc1 [N--(4-guanidinobutyl)-Gly--Asp--2-(4-methoxy-phenyl)ethyl amide] | 0% | – | – | – | – | –

— patent US4879313A, “Novel platelet-aggregation inhibitors” (Mosanto Company, priority 1988, dated 1989)
